“And” between values parts separate entries of the source, which are not always exact repeats. Equal entries are not always repeated. Where two headings read alike, the source gives them in different places.
Legend:
dsRNA reovirus = assay: Combination of human RNase I and human RNase III against reovirus in HEP-2 cells; format: cell-based; settings: 200 UA/ml
Description: The reovirus stock preparation used in this example has a titer of 5.5 log CPD50/0.1 ml.

FMD virus = format: cell-based
[1] = system: Influenza virus A/Aichi/2/68/H3N2; format: in vivo; settings: mice, single values
West Nile virus = assay: Antiviral effect of modified RNase I against West Nile virus in newborn rabbit kidney cells; settings: average of four replicate determinations
double-stranded RNA = settings: physiological salt conditions; double-stranded RNA substrate; cited from earlier work
FMDV of O-type = settings: guinea pig, in vivo
ssRNA corona virus = assay: Antiviral activity of labeled RNase I variants against ssRNA corona virus; format: cell-based
[2] = Cellular uptake of fluorescamine-labeled RNase I variants; format: cell-based; settings: fluorescamine label

| Substance | Average Titer (dsRNA reovirus) [logTCD50/0.1 ml] | Titer (dsRNA reovirus; single values) | Titer (FMD virus) | Titer in lungs ([1]; treatment i.n.) | Titer in lungs ([1]; treatment i.p.) | logTCD50/ml (West Nile virus; 100 UA/ml) [logTCD50/ml] | logTCD50/ml (West Nile virus; 250 UA/ml) [logTCD50/ml] | enzymatic activity relative to RNase A (double-stranded RNA) | Survived (FMDV of O-type) | duration of preventive effect after a single injection (FMDV of O-type) | animals that developed FMD (FMDV of O-type; sc) | Survived (FMDV of O-type; record 2) | Average Titer (ssRNA corona virus) | Cellular Uptake [OD430 nm] [2] |
| --- | --- | --- | --- | --- | --- | --- | --- | --- | --- | --- | --- | --- | --- | --- |
| RNase: recombinant / wild-type human RNase I (Examples 22, 30, 31) | 4.0 | 3.9 logTCD50/0.1 ml and 4.0 logTCD50/0.1 ml and 4.1 logTCD50/0.1 ml | 7.3; 7.1; 6.8 logTCD50/ml | 4.5 log TCD50 and 4.0 log TCD50 and 4.3 log TCD50 | 4.7 log TCD50 and 5.0 log TCD50 and 4.5 log TCD50 | 7.7 | 7.0 | about 500 times | 40 | at least 4 hours | 8 | 32 | – | – |
| *RNase I: fluorescamine-labeled human RNase I | – | – | – | – | – | – | – | – | – | – | – | – | 5.4 | 110 |

Source: US10335372B2, “Compositions with modified nucleases targeted to viral nucleic acids and methods of use for prevention and treatment of viral diseases” (priority 2004, dated 2019)
